We go through 2 compounds from patent publication US20230338338A1, “PHARMACEUTICAL COMPOSITIONS COMPRISING IONIC LIQUIDS” (The Provost, Fellows, Foundation Scholars, and the other …, priority 2021, published 2023).

What all share (format): physicochemical
Data set [1] in a line: Thermodynamic stability and miscibility of the ionic liquid in dissolution media (stirred 24 hours at 37° C., then monitored for two years). The conditions noted are these: for miscibility with dissolution medium: 2 to 85% w/w; for thermodynamic stability (crystallisation or liquid-liquid phase separation): 2 to 85% w/w BMIm Ibu:dissolution medium, stirred 24 hours at 37° C., then ambient conditions over two years. The method, then:
The thermodynamic stability of BMIm Ibu (ionic liquid) in deionised water (DIW) and simulated intestinal fluid (SIF; 0.05 M phosphate buffer, pH 6.8) was quantified as follows: Ratios of 2 to 85% w/w BMIm Ibu:dissolution medium were placed in small vials and allowed to stir for 24 hours at 37° C.

A short description of data set [2]: Dissolution study, USP Apparatus 2, simulated intestinal fluid (SIF). The settings on record: 0.05M phosphate buffer (pH 6.8), 900 ml, 37° C., 50 rpm, equivalent of 200 mg ibuprofenate ion, after 10 minutes until the end of four hours. The method, then: (§1) Dissolution studies were performed using a USP Apparatus 2 with a Sotax AT7 dissolution bath (Carl Stuart Limited, Dublin, Ireland). The mass of powder corresponding to the equivalent of 200 mg of ibuprofenate ion (equivalent to one dose) was added to 900 ml of dissolution media equilibrated at 37° C. stirred at 50 rpm. Samples were taken and replaced with fresh media every 5 min for the first 30 min, then at 45 min, 60 min and then every 30 min for the remainder of the experiment. The first 2 ml of each 5 ml sample was filtered and discarded before the remaining sample was filtered through a 0.45 μm nylon filter into a HPLC vial. All experiments were carried out in triplicate. A sample of the powder was assayed by completely dissolving it in methanol (n=3) and finding the ionic liquid content by HPLC.
The dissolution of powders 1 and 5 to 8 in simulated intestinal fluid (SIF), 0.05M phosphate buffer (pH 6.8) over a period of four hours was studied.
The dissolution of powders 9 and 10 in simulated intestinal fluid (SIF), 0.05M phosphate buffer (pH 6.8) over a period of four hours was studied.

Data set [3] is described as follows: Dissolution study, USP Apparatus 2, deionised water. The conditions noted are these: 900 ml, 37° C., 50 rpm, equivalent of 200 mg ibuprofenate ion, after 10 minutes until the end of four hours. The method, then:
as §1
The dissolution of powders 1 and 5 to 8 in deionised water over a period of four hours was studied.
The dissolution of powders 9 and 10 in deionised water over a period of four hours was studied.
An ibuprofen amorphous solid dispersion was also tested. The amorphous solid dispersion was prepared by spray drying a solution of ibuprofen and hydroxypropyl methylcellulose in methanol in the same way as Powders 1 to 8. The ibuprofen content of the amorphous solid dispersion was the same as Powder 1.

Where [4] appears, read: simulated intestinal fluid (SIF; 0.05 M phosphate buffer, pH 6.8).

For the compound `CC(C)Cc1ccc(C(C)C(=O)[O-])cc1.CCCCn1cc[n+](C)c1` (stereo not drawn) [BMIm Ibu, 1-butyl-3-methyl imidazolium ibuprofenate], the “miscibility with dissolution medium” value in data set [1] (deionised water (DIW)) and in data set [1] (setting [4]) was “fully miscible” in each case. Further, the “thermodynamic stability (crystallisation or liquid-liquid phase separation)” value in data set [1] (deionised water (DIW)) and in data set [1] (setting [4]) was “No crystallisation or phase separation was observed” throughout.
On to `CC(C)Cc1ccc(C(C)C(=O)O)cc1` (stereo not drawn) [crystalline ibuprofen, ibuprofen], for which the level of dissolution in data set [2] is listed as 100%; in data set [3], ≤ 30%.
